Experimental data published in patent publication US20240270762A1, “PENICILLIN-BINDING PROTEIN INHIBITORS” (priority 2021, published 2024).
Converted amounts (≈) assume the structure as drawn.

Assays:
P. aeruginosa CDC-0054 = experiment: microbe, parasite or virus in culture; type: cell-based; details: Pseudomonas aeruginosa, CDC0054, read-out: Minimum inhibitory concentration, P. aeruginosa CDC-0054
P. aeruginosa CDC-0090 = experiment: microbe, parasite or virus in culture; type: cell-based; details: Pseudomonas aeruginosa, CDC0090, read-out: Minimum inhibitory concentration, P. aeruginosa CDC-0090
A. baumannii CDC-0083 = experiment: microbe, parasite or virus in culture; type: cell-based; details: Acinetobacter baumannii, CDC0083, read-out: MIC, A. baumannii CDC-0083
N. gonorrhoeae FA1090 = experiment: Liquid broth MIC in Fastidious broth; details: Neisseria gonorrhoeae, FA1090, read-out: Minimum Inhibitory Concentration (MIC), N. gonorrhoeae FA 1090
Procedure: Additional antibacterial testing of the series was performed in 8 reference strains of N. gonorrhoeae (ATCC 49226, FA1090, MS 11, WHO G, WHO L, WHO M, WHO K, WHO X, WHO Z, WHO Q, CDC-0197). ATCC 49226, FA1090, MS11, WHO G, WHO L, and WHO M produce wild type or wild-type like PBP2. WHO K, WHO X, WHO Z, WHO Q, and CDC-0197 produce mosaic PBP2. Liquid broth-based assays were used for antibacterial testing of PBP inhibitors in Neisseria gonorrhoeae. Briefly, cryo-preserved bacterial cultures of clinical strains were streaked for isolation on Chocolate Agar (72 g/L (2×) GC Agar Base (BD #228950) and 2% (2×) Hemoglobin was autoclaved at 121° C. for 20 minutes to sterilize. Once cooled to ˜50° C. the 2×GC Agar Base and 2× Hemoglobin solutions are combined and 1% IsoVitaleX Enrichment (BD #211876) was added to the solution). Strains were incubated at 36° C. and 5% CO2 to allow growth of colonies, 24 hours before inoculum preparation. 2-fold serial dilutions of test compounds were conducted in a 96 well plate with a final volume of 75 μL per well at 2-fold the final desired concentration in Fastidious broth (Remel #R07664). For preparation of assay inoculum, a direct suspension was prepared by aseptically swabbing 10-15 colonies from agar plates into culture tubes containing 2 mL of fresh sterile saline. After the dilution plates were set up, direct suspensions were then diluted in a cuvette containing sterile saline and the optical density was measured at 600 nm. Inocula were diluted such that 75 μL of this culture in Fastidious broth results in a starting bacterial concentration of 5×10^5 CFU/mL when added to the dilution plates. The plates were incubated for ˜24 hours at 36° C. and 5% CO2.

A. baumannii CDC-0036 = experiment: microbe, parasite or virus in culture; type: cell-based; details: Acinetobacter baumannii, CDC0036, read-out: MIC, A. baumannii CDC-0036
P. aeruginosa ATCC 27853 = experiment: microbe, parasite or virus in culture; type: cell-based; details: Pseudomonas aeruginosa, ATCC27853, read-out: Minimum inhibitory concentration, P. aeruginosa ATCC 27853
N. gonorrhoeae WHO G = experiment: Liquid broth MIC in Fastidious broth; details: Neisseria gonorrhoeae, read-out: Minimum Inhibitory Concentration (MIC), N. gonorrhoeae WHO G
[1] = molecular target: T1, PBP3 from Pseudomonas aeruginosa (PAO1) (Pseudomonas aeruginosa, UniProt G3XD46); experiment: Bocillin-FL fluorescence polarization competition binding, P. aeruginosa PBP3; details: Binding affinity to P. aeruginosa PBP3; fluorescence polarization competition binding assay using Bocillin-FL; read-out: P. aeruginosa PBP3 Potency
T1 construct: made in house
T1 sequence (G3XD46 whole entry): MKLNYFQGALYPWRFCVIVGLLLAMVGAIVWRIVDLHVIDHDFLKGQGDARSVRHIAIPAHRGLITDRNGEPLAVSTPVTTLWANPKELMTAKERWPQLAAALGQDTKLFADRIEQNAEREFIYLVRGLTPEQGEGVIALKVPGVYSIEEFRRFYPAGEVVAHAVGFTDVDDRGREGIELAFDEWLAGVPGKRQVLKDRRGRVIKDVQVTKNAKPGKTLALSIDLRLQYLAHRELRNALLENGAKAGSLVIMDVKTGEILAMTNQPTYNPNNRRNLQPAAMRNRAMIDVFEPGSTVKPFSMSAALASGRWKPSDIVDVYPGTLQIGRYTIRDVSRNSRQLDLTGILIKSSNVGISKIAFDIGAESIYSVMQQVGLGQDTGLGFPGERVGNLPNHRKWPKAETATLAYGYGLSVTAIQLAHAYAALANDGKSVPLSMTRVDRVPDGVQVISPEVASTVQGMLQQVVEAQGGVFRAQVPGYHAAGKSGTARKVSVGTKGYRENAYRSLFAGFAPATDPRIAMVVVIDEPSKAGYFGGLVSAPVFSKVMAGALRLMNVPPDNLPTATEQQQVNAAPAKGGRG
How it was run: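 Purified PBPs pre-incubated with inhibitor (E. coli PBP3 1.5 μM, 30 min; P. aeruginosa PBP3 0.75 μM, A. baumannii PBP1a 1 μM and PBP3 0.2 μM, 15 min), then Bocillin-FL 0.1 μM (0.05 μM for PBP1a) added; FP read up to 60 min. EC50 = concentration halving bound Bocillin-FL.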

P. aeruginosa CDC-0110 = experiment: microbe, parasite or virus in culture; type: cell-based; details: Pseudomonas aeruginosa, CDC0110, read-out: Minimum inhibitory concentration, P. aeruginosa CDC-0110
[2] = system: N. gonorrhoeae ATCC 49226; experiment: Liquid broth MIC in Fastidious broth; details: Neisseria gonorrhoeae, ATCC49226, read-out: Minimum Inhibitory Concentration (MIC), N. gonorrhoeae ATCC 49226
N. gonorrhoeae WHO M = experiment: Liquid broth MIC in Fastidious broth; details: Neisseria gonorrhoeae, read-out: Minimum Inhibitory Concentration (MIC), N. gonorrhoeae WHO M
[3] = system: B. humptydooensis ATCC BAA-2767; experiment: microbe, parasite or virus in culture; type: cell-based; details: Burkholderia humptydooensis, ATCCBAA2767, read-out: Minimum inhibitory concentration (MIC), B. humptydooensis ATCC BAA-2767
N. gonorrhoeae WHO X = experiment: Liquid broth MIC in Fastidious broth; details: Neisseria gonorrhoeae, read-out: Minimum Inhibitory Concentration (MIC), N. gonorrhoeae WHO X

| SMILES | MIC (P. aeruginosa CDC-0054) [µg/mL] | MIC (P. aeruginosa CDC-0090) [µg/mL] | MIC (A. baumannii CDC-0083) [µg/mL] | MIC (N. gonorrhoeae FA1090) [µg/mL] | MIC (A. baumannii CDC-0036) [µg/mL] | MIC (P. aeruginosa ATCC 27853) [µg/mL] | MIC (N. gonorrhoeae WHO G) [µg/mL] | IC50 [1] [µM] | MIC (P. aeruginosa CDC-0110) [µg/mL] | MIC [2] [µg/mL] | MIC (N. gonorrhoeae WHO M) [µg/mL] | MIC [3] [µg/mL] | MIC (N. gonorrhoeae WHO X) [µg/mL] |
| --- | --- | --- | --- | --- | --- | --- | --- | --- | --- | --- | --- | --- | --- |
| CN(CCN1CCN(C(=O)NC(C(=O)N[C@H]2Cc3ccc(F)c(C(=O)O)c3OB2O)c2cc(F)c(O)c(O)c2Cl)C(=O)C1=O)S(=O)(=O)c1ccc(C(N)=O)cc1 (stereo partly drawn) [Example 223, (3R)-3-(2-(4-(2-((4-carbamoyl-N-methylphenyl)sulfonamido)ethyl)-2,3-dioxopiperazine-1-carboxamido)-2-(2-chloro-5-fluoro-3,4-dihydroxyphenyl)acetamido)-7-fluoro-2-hydroxy-3,4-dihydro-2H-benzo[e][1,2]oxaborinine-8-carboxylic acid] | 2 to 4 (≈ 2.43 to 4.86 µM) | 2 to 4 (≈ 2.43 to 4.86 µM) | 2 to 4 (≈ 2.43 to 4.86 µM) | 4 to 8 (≈ 4.86 to 9.72 µM) | 8 to 16 (≈ 9.72 to 19.4 µM) | 2 to 4 (≈ 2.43 to 4.86 µM) | 16 to 32 (≈ 19.4 to 38.9 µM) | < 10 | < 1 | 16 to 32 (≈ 19.4 to 38.9 µM) | 16 to 32 (≈ 19.4 to 38.9 µM) | < 1 | > 64 |
| CN(CCN1CCN(C(=O)NC(C(=O)N[C@H]2Cc3ccc(F)c(C(=O)O)c3OB2O)c2cc(F)c(O)c(O)c2Cl)C(=O)C1=O)S(=O)(=O)c1cccc(C(N)=O)c1 (stereo partly drawn) [Example 224, (3R)-3-(2-(4-(2-((3-carbamoyl-N-methylphenyl)sulfonamido)ethyl)-2,3-dioxopiperazine-1-carboxamido)-2-(2-chloro-5-fluoro-3,4-dihydroxyphenyl)acetamido)-7-fluoro-2-hydroxy-3,4-dihydro-2H-benzo[e][1,2]oxaborinine-8-carboxylic acid] | 2 to 4 (≈ 2.43 to 4.86 µM) | < 1 | 2 to 4 (≈ 2.43 to 4.86 µM) | 4 to 8 (≈ 4.86 to 9.72 µM) | 8 to 16 (≈ 9.72 to 19.4 µM) | 2 to 4 (≈ 2.43 to 4.86 µM) | 16 to 32 (≈ 19.4 to 38.9 µM) | < 10 | < 1 | 16 to 32 (≈ 19.4 to 38.9 µM) | 16 to 32 (≈ 19.4 to 38.9 µM) | < 1 | > 64 |
| CN(CCN1CCN(C(=O)N[C@@H](C(=O)N[C@H]2Cc3ccc(F)c(C(=O)O)c3OB2O)c2cc(F)c(O)c(O)c2Cl)C(=O)C1=O)Cc1cccc(C(N)=O)c1 [Example 225, (R)-3-((R)-2-(4-(2-((3-carbamoylbenzyl)(methyl)amino)ethyl)-2,3-dioxopiperazine-1-carboxamido)-2-(2-chloro-5-fluoro-3,4-dihydroxyphenyl)acetamido)-7-fluoro-2-hydroxy-3,4-dihydro-2H-benzo[e][1,2]oxaborinine-8-carboxylic acid] | 2 to 4 (≈ 2.59 to 5.18 µM) | < 1 | < 1 | 1 to 2 (≈ 1.29 to 2.59 µM) | 2 to 4 (≈ 2.59 to 5.18 µM) | 2 to 4 (≈ 2.59 to 5.18 µM) | 16 to 32 (≈ 20.7 to 41.4 µM) | < 10 | < 1 | 16 to 32 (≈ 20.7 to 41.4 µM) | 16 to 32 (≈ 20.7 to 41.4 µM) | < 1 | > 64 |
| CN(CCN1CCN(C(=O)N[C@@H](C(=O)N[C@H]2Cc3ccc(F)c(C(=O)O)c3OB2O)c2cc(F)c(O)c(O)c2Cl)C(=O)C1=O)Cc1ccc(C(N)=O)cc1 [Example 226, (R)-3-((R)-2-(4-(2-((4-carbamoylbenzyl)(methyl)amino)ethyl)-2,3-dioxopiperazine-1-carboxamido)-2-(2-chloro-5-fluoro-3,4-dihydroxyphenyl)acetamido)-7-fluoro-2-hydroxy-3,4-dihydro-2H-benzo[e][1,2]oxaborinine-8-carboxylic acid] | 8 to 16 (≈ 10.4 to 20.7 µM) | < 1 | < 1 | 1 to 2 (≈ 1.29 to 2.59 µM) | 2 to 4 (≈ 2.59 to 5.18 µM) | 2 to 4 (≈ 2.59 to 5.18 µM) | 16 to 32 (≈ 20.7 to 41.4 µM) | < 10 | < 1 | 16 to 32 (≈ 20.7 to 41.4 µM) | 16 to 32 (≈ 20.7 to 41.4 µM) | < 1 | > 64 |
| O=C(NCCCN1CCN(C(=O)NC(C(=O)N[C@H]2Cc3ccc(F)c(C(=O)O)c3OB2O)c2cc(F)c(O)c(O)c2Cl)C(=O)C1=O)Nc1ccc(O)cc1 (stereo partly drawn) [Example 227, (3R)-3-(2-(2-chloro-5-fluoro-3,4-dihydroxyphenyl)-2-(4-(3-(3-(4-hydroxyphenyl)ureido)propyl)-2,3-dioxopiperazine-1-carboxamido)acetamido)-7-fluoro-2-hydroxy-3,4-dihydro-2H-benzo[e][1,2]oxaborinine-8-carboxylic acid] | < 1 | 2 to 4 (≈ 2.58 to 5.16 µM) | < 1 | 1 to 2 (≈ 1.29 to 2.58 µM) | 2 to 4 (≈ 2.58 to 5.16 µM) | < 1 | 4 to 8 (≈ 5.16 to 10.3 µM) | < 10 | < 1 | 16 to 32 (≈ 20.6 to 41.3 µM) | 4 to 8 (≈ 5.16 to 10.3 µM) | < 1 | > 64 |
| O=C(NCCCN1CCN(C(=O)NC(C(=O)N[C@H]2Cc3ccc(F)c(C(=O)O)c3OB2O)c2cc(F)c(O)c(O)c2Cl)C(=O)C1=O)Nc1ccncc1 (stereo partly drawn) [Example 228, (3R)-3-(2-(2-chloro-5-fluoro-3,4-dihydroxyphenyl)-2-(2,3-dioxo-4-(3-(3-(pyridin-4-yl)ureido)propyl)piperazine-1-carboxamido)acetamido)-7-fluoro-2-hydroxy-3,4-dihydro-2H-benzo[e][1,2]oxaborinine-8-carboxylic acid] | < 1 | 2 to 4 (≈ 2.63 to 5.26 µM) | < 1 | 1 to 2 (≈ 1.32 to 2.63 µM) | 2 to 4 (≈ 2.63 to 5.26 µM) | < 1 | 16 to 32 (≈ 21.1 to 42.1 µM) | < 10 | < 1 | > 64 | 16 to 32 (≈ 21.1 to 42.1 µM) | < 1 | > 64 |
| O=C(CN1CCN(C(=O)NC(C(=O)N[C@H]2Cc3ccc(F)c(C(=O)O)c3OB2O)c2cc(F)c(O)c(O)c2Cl)C(=O)C1=O)Nc1ccc(O)cc1 (stereo partly drawn) [Example 230, (3R)-3-(2-(2-chloro-5-fluoro-3,4-dihydroxyphenyl)-2-(4-(2-((4-hydroxyphenyl)amino)-2-oxoethyl)-2,3-dioxopiperazine-1-carboxamido)acetamido)-7-fluoro-2-hydroxy-3,4-dihydro-2H-benzo[e][1,2]oxaborinine-8-carboxylic acid] | < 1 | 2 to 4 (≈ 2.73 to 5.47 µM) | < 1 | 1 to 2 (≈ 1.37 to 2.73 µM) | 2 to 4 (≈ 2.73 to 5.47 µM) | < 1 | 4 to 8 (≈ 5.47 to 10.9 µM) | < 10 | < 1 | 4 to 8 (≈ 5.47 to 10.9 µM) | 4 to 8 (≈ 5.47 to 10.9 µM) | 2 to 4 (≈ 2.73 to 5.47 µM) | > 64 |
| O=C(CN1CCN(C(=O)NC(C(=O)N[C@H]2Cc3ccc(F)c(C(=O)O)c3OB2O)c2cc(F)c(O)c(O)c2Cl)C(=O)C1=O)Nc1cccc(O)c1 (stereo partly drawn) [Example 231, (3R)-3-(2-(2-chloro-5-fluoro-3,4-dihydroxyphenyl)-2-(4-(2-((3-hydroxyphenyl)amino)-2-oxoethyl)-2,3-dioxopiperazine-1-carboxamido)acetamido)-7-fluoro-2-hydroxy-3,4-dihydro-2H-benzo[e][1,2]oxaborinine-8-carboxylic acid] | 2 to 4 (≈ 2.73 to 5.47 µM) | 2 to 4 (≈ 2.73 to 5.47 µM) | > 128 | 1 to 2 (≈ 1.37 to 2.73 µM) | 2 to 4 (≈ 2.73 to 5.47 µM) | < 1 | 4 to 8 (≈ 5.47 to 10.9 µM) | < 10 | < 1 | 16 to 32 (≈ 21.9 to 43.7 µM) | 4 to 8 (≈ 5.47 to 10.9 µM) | 8 to 16 (≈ 10.9 to 21.9 µM) | > 64 |
| O=C(CN1CCN(C(=O)NC(C(=O)N[C@H]2Cc3ccc(F)c(C(=O)O)c3OB2O)c2cc(F)c(O)c(O)c2Cl)C(=O)C1=O)Nc1ccccc1 (stereo partly drawn) [Example 232, (3R)-3-(2-(2-chloro-5-fluoro-3,4-dihydroxyphenyl)-2-(2,3-dioxo-4-(2-oxo-2-(phenylamino)ethyl)piperazine-1-carboxamido)acetamido)-7-fluoro-2-hydroxy-3,4-dihydro-2H-benzo[e][1,2]oxaborinine-8-carboxylic acid] | 2 to 4 (≈ 2.79 to 5.59 µM) | 2 to 4 (≈ 2.79 to 5.59 µM) | > 128 | 1 to 2 (≈ 1.4 to 2.79 µM) | 8 to 16 (≈ 11.2 to 22.4 µM) | 2 to 4 (≈ 2.79 to 5.59 µM) | 16 to 32 (≈ 22.4 to 44.7 µM) | < 10 | 2 to 4 (≈ 2.79 to 5.59 µM) | 16 to 32 (≈ 22.4 to 44.7 µM) | 4 to 8 (≈ 5.59 to 11.2 µM) | > 128 | > 64 |
